Test system: MV-4-11 cells
Assay: Gene expression microarray analysis (Affymetrix PrimeView) and GSEA
Type: cell-based, human
Design: RFU PODN (11730768_x_at) / Fold change /veh PODN (11730768_x_at) / RFU LINC00158 (11744669_a_at) / Fold change /veh LINC00158 (11744669_a_at) / RFU DUSP10 (11751237_a_at) / Fold change /veh DUSP10 (11751237_a_at) / RFU ID3 (11757404_x_at) / Fold change /veh ID3 (11757404_x_at) / RFU PLEKHG5 (11737974_s_at) / Fold change /veh PLEKHG5 (11737974_s_at) / RFU LRRC4B (11730491_at) / Fold change /veh LRRC4B (11730491_at) / RFU GIMAP4 (11747438_a_at) / Fold change /veh GIMAP4 (11747438_a_at) / RFU KRT8 (11758183_x_at) / Fold change /veh KRT8 (11758183_x_at) / RFU CNN1 (11734310_a_at) / Fold change /veh CNN1 (11734310_a_at) / RFU VPS37D (11726825_at) / Fold change /veh VPS37D (11726825_at) / RFU C10orf10 (11716522_x_at) / Fold change /veh C10orf10 (11716522_x_at) / RFU KIR2DL2 /// KIR2DL4 /// KIR2DL5A /// KIR2DL5B /// KIR2DS1 /// KIR2DS2 /// KIR2DS3 /// KIR2DS4 /// KIR3DL3 /// KIR3DL3 /// KIR3DS1 (11738374_at) / Fold change /veh KIR2DL2 /// KIR2DL4 /// KIR2DL5A /// KIR2DL5B /// KIR2DS1 /// KIR2DS2 /// KIR2DS3 /// KIR2DS4 /// KIR3DL3 /// KIR3DL3 /// KIR3DS1 (11738374_at) / RFU C1QL1 (11718748_at) / Fold change /veh C1QL1 (11718748_at) / RFU TMPRSS4 (11747572_a_at) / Fold change /veh TMPRSS4 (11747572_a_at) / RFU HAMP (11756126_x_at) / Fold change /veh HAMP (11756126_x_at) / RFU RNFT2 (11725882_a_at) / Fold change /veh RNFT2 (11725882_a_at) / RFU NR4A2 (11747474_a_at) / Fold change /veh NR4A2 (11747474_a_at) / RFU ABCC12 (11746883_a_at) / Fold change /veh ABCC12 (11746883_a_at) / RFU TMEM136 (11760407_x_at) / Fold change /veh TMEM136 (11760407_x_at) / RFU CLDN22 /// WWC2 (11732394_at) / Fold change /veh CLDN22 /// WWC2 (11732394_at) / RFU HLA-DPB1 (11760878_x_at) / Fold change /veh HLA-DPB1 (11760878_x_at) / RFU SPINT1 (11716480_a_at) / Fold change /veh SPINT1 (11716480_a_at) / RFU GAP43 (11754022_s_at) / Fold change /veh GAP43 (11754022_s_at) / RFU A4GNT (11735810_at) / Fold change /veh A4GNT (11735810_at) / RFU PRB3 (11715151_x_at) / Fold change /veh PRB3 (11715151_x_at) / RFU TUBB4B (11761932_at) / Fold change /veh TUBB4B (11761932_at) / RFU CAPN14 (11732068_a_at) / Fold change /veh CAPN14 (11732068_a_at) / RFU TMCC2 (11721928_a_at) / Fold change /veh TMCC2 (11721928_a_at) / RFU IRGQ (11745062_a_at) / Fold change /veh IRGQ (11745062_a_at) / RFU FAM174B (11720279_a_at) / Fold change /veh FAM174B (11720279_a_at) / RFU TMPRSS4 (11748680_a_at) / Fold change /veh TMPRSS4 (11748680_a_at) / RFU FAM212B (11763350_a_at) / Fold change /veh FAM212B (11763350_a_at) / RFU PLEKHG5 (11743358_a_at) / Fold change /veh PLEKHG5 (11743358_a_at) / RFU ZSCAN30 (11745921_a_at) / Fold change /veh ZSCAN30 (11745921_a_at) / RFU CMKLR1 (11741424_a_at) / Fold change /veh CMKLR1 (11741424_a_at) / RFU LOC101060620 /// MAPK8IP1 (11723275_at) / Fold change /veh LOC101060620 /// MAPK8IP1 (11723275_at) / RFU SPTSSB (11747773_x_at) / Fold change /veh SPTSSB (11747773_x_at) / RFU PRSS12 (11739890_at) / Fold change /veh PRSS12 (11739890_at) / RFU BIN1 (11741810_x_at) / Fold change /veh BIN1 (11741810_x_at) / RFU WNT11 (11732464_a_at) / Fold change /veh WNT11 (11732464_a_at) / RFU C10orf10 (11716521_a_at) / Fold change /veh C10orf10 (11716521_a_at) / RFU C5orf56 (11738089_at) / Fold change /veh C5orf56 (11738089_at) / RFU CYB561 (11721691_x_at) / Fold change /veh CYB561 (11721691_x_at) / RFU ANKRD19P (11752326_a_at) / Fold change /veh ANKRD19P (11752326_a_at) / RFU OR2T12 /// OR2T33 /// OR2T8 (11738714_s_at) / Fold change /veh OR2T12 /// OR2T33 /// OR2T8 (11738714_s_at) / RFU VCAN (11748164_a_at) / Fold change /veh VCAN (11748164_a_at) / RFU JSRP1 (11732532_at) / Fold change /veh JSRP1 (11732532_at) / RFU KRTAP10-11 (11738290_x_at) / Fold change /veh KRTAP10-11 (11738290_x_at) / RFU MYO3A (11730013_a_at) / Fold change /veh MYO3A (11730013_a_at) / RFU EBF3 (11725865_a_at) / Fold change /veh EBF3 (11725865_a_at) / RFU CAMK2N1 (11719241_x_at) / Fold change /veh CAMK2N1 (11719241_x_at) / RFU C5orf56 (11738088_a_at) / Fold change /veh C5orf56 (11738088_a_at) / RFU OLFML3 (11715873_a_at) / Fold change /veh OLFML3 (11715873_a_at) / RFU LOC100653217 /// NTM (11731650_a_at) / Fold change /veh LOC100653217 /// NTM (11731650_a_at) / RFU MAPK11 (11762145_a_at) / Fold change /veh MAPK11 (11762145_a_at) / RFU FIZ1 (11724087_x_at) / Fold change /veh FIZ1 (11724087_x_at) / RFU OASL (11726364_x_at) / Fold change /veh OASL (11726364_x_at) / RFU SOX15 (11748057_x_at) / Fold change /veh SOX15 (11748057_x_at) / RFU CD79A (11719716_a_at) / Fold change /veh CD79A (11719716_a_at) / RFU HIST1H1D (11736915_at) / Fold change /veh HIST1H1D (11736915_at) / RFU CASKIN2 (11723855_a_at) / Fold change /veh CASKIN2 (11723855_a_at) / RFU LOC730098 (11760151_x_at) / Fold change /veh LOC730098 (11760151_x_at) / RFU OR4N2 (11742367_at) / Fold change /veh OR4N2 (11742367_at) / RFU PRRT2 (11749266_a_at) / Fold change /veh PRRT2 (11749266_a_at) / RFU SNX32 (11753110_a_at) / Fold change /veh SNX32 (11753110_a_at) / RFU CDHR5 (11726645_a_at) / Fold change /veh CDHR5 (11726645_a_at) / RFU RCAN1 (11760418_a_at) / Fold change /veh RCAN1 (11760418_a_at) / RFU FAM167A (11723789_a_at) / Fold change /veh FAM167A (11723789_a_at) / RFU FAM26E (11764081_at) / Fold change /veh FAM26E (11764081_at) / RFU ISYNA1 (11749810_s_at) / Fold change /veh ISYNA1 (11749810_s_at) / RFU ACY1 (11761880_at) / Fold change /veh ACY1 (11761880_at) / RFU 11764098_at / Fold change /veh 11764098_at / RFU SAMD14 (11745864_x_at) / Fold change /veh SAMD14 (11745864_x_at) / RFU NPB (11741838_a_at) / Fold change /veh NPB (11741838_a_at) / RFU TMPRSS6 (11731388_a_at) / Fold change /veh TMPRSS6 (11731388_a_at) / RFU KRTAP10-2 (11738614_at) / Fold change /veh KRTAP10-2 (11738614_at) / RFU ARHGAP8 /// PRR5-ARHGAP8 (11727945_x_at) / Fold change /veh ARHGAP8 /// PRR5-ARHGAP8 (11727945_x_at) / RFU KRTAP5-7 /// NADSYN1 (11734609_at) / Fold change /veh KRTAP5-7 /// NADSYN1 (11734609_at) / RFU RASL12 (11751679_a_at) / Fold change /veh RASL12 (11751679_a_at) / RFU CDKN2B (11736163_a_at) / Fold change /veh CDKN2B (11736163_a_at) / RFU PRF1 (11729649_at) / Fold change /veh PRF1 (11729649_at) / RFU, ZNF638 /// ZNF638-IT1 / Fold change vs veh, ZNF638 /// ZNF638-IT1 / RFU, PANK3 / Fold change vs veh, PANK3 / RFU, SH3YL1 / Fold change vs veh, SH3YL1 / RFU, ZEB2 / Fold change vs veh, ZEB2 / RFU, NRIP1 / Fold change vs veh, NRIP1 / RFU, PTTG1IP / Fold change vs veh, PTTG1IP / RFU, CAPN2 / Fold change vs veh, CAPN2 / RFU, MED14 / Fold change vs veh, MED14 / RFU, SNORA58 / Fold change vs veh, SNORA58 / RFU, C1orf63 / Fold change vs veh, C1orf63 / RFU, LRRFIP1 / Fold change vs veh, LRRFIP1 / RFU, NDUFAF7 / Fold change vs veh, NDUFAF7 / RFU, SLC12A2 / Fold change vs veh, SLC12A2 / RFU, IBTK / Fold change vs veh, IBTK / RFU, ESF1 / Fold change vs veh, ESF1 / Fold change vs veh, TMEM50B / RFU, TAOK1 / Fold change vs veh, TAOK1 / RFU, ACBD3 / Fold change vs veh, ACBD3 / RFU, TMA16 / Fold change vs veh, TMA16 / RFU, RWDD3 / Fold change vs veh, RWDD3 / RFU, BCAT1 / Fold change vs veh, BCAT1 / RFU, EDEM3 / Fold change vs veh, EDEM3 / RFU, TMEM33 / Fold change vs veh, TMEM33 / RFU, WDR75 / Fold change vs veh, WDR75 / RFU, AHCTF1 / Fold change vs veh, AHCTF1 / RFU, TFRC / Fold change vs veh, TFRC / RFU, ZDHHC17 / Fold change vs veh, ZDHHC17 / RFU, NOM1 / Fold change vs veh, NOM1 / RFU, ARL8B / Fold change vs veh, ARL8B / RFU, ZBTB11 / Fold change vs veh, ZBTB11 / RFU, TAMM41 / Fold change vs veh, TAMM41 / RFU, KIAA1704 /// LOC100996395 / Fold change vs veh, KIAA1704 /// LOC100996395 / RFU, ING1 / Fold change vs veh, ING1 / RFU, TRMT61B / Fold change vs veh, TRMT61B / RFU, FUBP3 / Fold change vs veh, FUBP3 / RFU, TP53 / Fold change vs veh, TP53 / RFU, TNKS2 / Fold change vs veh, TNKS2 / RFU, ZFP14 / Fold change vs veh, ZFP14 / RFU, ACTR2 / Fold change vs veh, ACTR2 / RFU, PPP3R1 / Fold change vs veh, PPP3R1 / RFU, PIK3R1 / Fold change vs veh, PIK3R1 / RFU, HNRNPA1 / Fold change vs veh, HNRNPA1 / RFU, RNF170 / Fold change vs veh, RNF170 / RFU, ZNF28 / Fold change vs veh, ZNF28 / RFU, RNGTT / Fold change vs veh, RNGTT / RFU, OGT / Fold change vs veh, OGT / RFU, BRD1 / Fold change vs veh, BRD1 / RFU, MARS / Fold change vs veh, MARS / RFU, ZNF655 / Fold change vs veh, ZNF655 / RFU, FAHD1 / Fold change vs veh, FAHD1 / RFU, BDP1 / Fold change vs veh, BDP1 / RFU, LRRCC1 / Fold change vs veh, LRRCC1 / RFU, ARID1A / Fold change vs veh, ARID1A / RFU, ZNF146 / Fold change vs veh, ZNF146 / RFU, ZNF330 / Fold change vs veh, ZNF330 / RFU, GPN3 / Fold change vs veh, GPN3 / RFU, C9orf123 / Fold change vs veh, C9orf123 / RFU, N4BP2L2 / Fold change vs veh, N4BP2L2 / RFU, ARFIP1 / Fold change vs veh, ARFIP1 / RFU, FAM179B / Fold change vs veh, FAM179B / RFU, BCL10 / Fold change vs veh, BCL10 / RFU, UHRF1BP1L / Fold change vs veh, UHRF1BP1L / RFU, BET1 / Fold change vs veh, BET1 / RFU, CNOT2 / Fold change vs veh, CNOT2 / RFU, ZNF268 / Fold change vs veh, ZNF268 / Fold change vs veh, ZNF507 / RFU, DGCR2 / Fold change vs veh, DGCR2 / RFU, WDSUB1 / Fold change vs veh, WDSUB1 / Fold change vs veh, HSP90B1 /// MIR3652 / RFU, ADSS / Fold change vs veh, ADSS / RFU, GK / Fold change vs veh, GK / RFU, ZNF148 / Fold change vs veh, ZNF148 / RFU, TAF9 / Fold change vs veh, TAF9 / RFU, SLC1A5 / Fold change vs veh, SLC1A5 / RFU, SLMO2 / Fold change vs veh, SLMO2 / RFU, ABCC4 / Fold change vs veh, ABCC4 / RFU, LOC101060439 /// RAP1B / Fold change vs veh, LOC101060439 /// RAP1B / RFU, RFX7 / Fold change vs veh, RFX7 / RFU, GTPBP10 / Fold change vs veh, GTPBP10 / RFU, CNEP1R1 / Fold change vs veh, CNEP1R1 / RFU, BIVM-ERCC5 /// ERCC5 / Fold change vs veh, BIVM-ERCC5 /// ERCC5 / RFU, ILF3 / Fold change vs veh, ILF3 / RFU 11762660_at / Fold change /veh 11762660_at / RFU VCAN (11757783_s_at) / Fold change /veh VCAN (11757783_s_at) / RFU DDX43 (11728927_at) / Fold change /veh DDX43 (11728927_at) / RFU KRT8 (11758188_x_at) / Fold change /veh KRT8 (11758188_x_at) / RFU NKD1 (11759106_at) / Fold change /veh NKD1 (11759106_at) / RFU SRD5A1 (11742802_a_at) / Fold change /veh SRD5A1 (11742802_a_at) / RFU TPSAB1 /// TPSB2 (11721975_s_at) / Fold change /veh TPSAB1 /// TPSB2 (11721975_s_at) / RFU GSTM3 (11746129_a_at) / Fold change /veh GSTM3 (11746129_a_at) / RFU IL23R (11737362_x_at) / Fold change /veh IL23R (11737362_x_at) / RFU TMEM51 (11727254_a_at) / Fold change /veh TMEM51 (11727254_a_at) / RFU PIWIL2 (11732686_x_at) / Fold change /veh PIWIL2 (11732686_x_at) / RFU ORM1 (11744905_x_at) / Fold change /veh ORM1 (11744905_x_at) / RFU CCDC152 (11743942_at) / Fold change /veh CCDC152 (11743942_at) / RFU ECM1 (11717891_a_at) / Fold change /veh ECM1 (11717891_a_at) / RFU IL23R (11748794_a_at) / Fold change /veh IL23R (11748794_a_at) / RFU TNFAIP8L3 (11732012_x_at) / Fold change /veh TNFAIP8L3 (11732012_x_at) / RFU MBOAT4 (11741988_at) / Fold change /veh MBOAT4 (11741988_at) / RFU 11764193_at / Fold change /veh 11764193_at / RFU TMEM53 (11763286_at) / Fold change /veh TMEM53 (11763286_at) / RFU MAGEB2 (11727129_at) / Fold change /veh MAGEB2 (11727129_at) / RFU TMEM200A (11744735_a_at) / Fold change /veh TMEM200A (11744735_a_at) / RFU CCDC152 (11751479_a_at) / Fold change /veh CCDC152 (11751479_a_at) / RFU FAM211A (11726209_a_at) / Fold change /veh FAM211A (11726209_a_at) / RFU RGS16 (11746705_a_at) / Fold change /veh RGS16 (11746705_a_at) / RFU VCAN (11755009_s_at) / Fold change /veh VCAN (11755009_s_at) / RFU RHOB (11743442_s_at) / Fold change /veh RHOB (11743442_s_at) / RFU RGS16 (11720943_a_at) / Fold change /veh RGS16 (11720943_a_at) / RFU RGS16 (11720944_at) / Fold change /veh RGS16 (11720944_at) / RFU, VPS4B / Fold change vs veh, VPS4B / RFU, CREB1 / Fold change vs veh, CREB1 / RFU, DNAJC13 / Fold change vs veh, DNAJC13 / RFU, GNAQ / Fold change vs veh, GNAQ / RFU, CDK5R1 / Fold change vs veh, CDK5R1 / RFU, ZRANB3 / Fold change vs veh, ZRANB3 / RFU, CUL4A / Fold change vs veh, CUL4A / RFU, CCNY / Fold change vs veh, CCNY / RFU, UFL1 / Fold change vs veh, UFL1 / RFU, COG3 / Fold change vs veh, COG3 / RFU, DIAPH2 / Fold change vs veh, DIAPH2 / RFU, SKA2 / Fold change vs veh, SKA2 / RFU, AFF3 / Fold change vs veh, AFF3 / RFU, LMF1 / Fold change vs veh, LMF1 / RFU, IPO11 / Fold change vs veh, IPO11 / RFU, DFFB / Fold change vs veh, DFFB / RFU, FOXP1 / Fold change vs veh, FOXP1 / RFU, CARD8 / Fold change vs veh, CARD8 / RFU, STRN3 / Fold change vs veh, STRN3 / RFU, ADK / Fold change vs veh, ADK / RFU, RASSF2 / Fold change vs veh, RASSF2 / RFU, WIPF1 / Fold change vs veh, WIPF1 / RFU, LARP1B / Fold change vs veh, LARP1B / RFU, RASA1 / Fold change vs veh, RASA1 / RFU, RB1 / Fold change vs veh, RB1 / RFU, PPFIA1 / Fold change vs veh, PPFIA1 / RFU, MAT2A / Fold change vs veh, MAT2A / RFU, CCT5 / Fold change vs veh, CCT5 / RFU, WDR92 / Fold change vs veh, WDR92 / RFU, CUX1 / Fold change vs veh, CUX1 / RFU, TTC7A / Fold change vs veh, TTC7A / RFU, TMEM135 / Fold change vs veh, TMEM135 / RFU, DEPTOR / Fold change vs veh, DEPTOR / RFU, CPM / Fold change vs veh, CPM / RFU, DNAJB6 / Fold change vs veh, DNAJB6 / RFU, CACNA2D3 / Fold change vs veh, CACNA2D3 / RFU, DTX4 / Fold change vs veh, DTX4 / RFU, TFCP2 / Fold change vs veh, TFCP2 / RFU, GMCL1 /// GMCL1P1 / Fold change vs veh, GMCL1 /// GMCL1P1 / RFU, AEBP2 / Fold change vs veh, AEBP2 / RFU, SNHG1 /// SNORD22 /// SNORD25 /// SNORD26 /// SNORD27 /// SNORD28 /// SNORD29 /// SNORD31 / Fold change vs veh, SNHG1 /// SNORD22 /// SNORD25 /// SNORD26 /// SNORD27 /// SNORD28 /// SNORD29 /// SNORD31 / Fold change (Aza/veh), C12orf56 (ProbeSet 11735607_a_at) / Fold change (ACY-1035/veh), C12orf56 (ProbeSet 11735607_a_at) / Fold change (Aza/veh), FGFR1OP (ProbeSet 11751329_s_at) / Fold change (ACY-1035/veh), FGFR1OP (ProbeSet 11751329_s_at) / Fold change (Aza/veh), VPS36 (ProbeSet 11739960_a_at) / Fold change (ACY-1035/veh), VPS36 (ProbeSet 11739960_a_at) / RFU SYPL1 (11715823_x_at) / Fold change /veh SYPL1 (11715823_x_at) / RFU IGFBP7 (11715501_s_at) / Fold change /veh IGFBP7 (11715501_s_at) / RFU REEP3 (11722064_at) / Fold change /veh REEP3 (11722064_at) / RFU IGLL1 (11728026_x_at) / Fold change /veh IGLL1 (11728026_x_at): dose or concentration left out as unconfirmed
Settings: MV-4-11 cells, 48 hours

Compound: Nc1ccc(-c2cccs2)cc1NC(=O)c1ccc2c(c1)cc(C1CC1)n2CCN1CCOCC1 [ACY-1035]
- RFU KRT8 (11758188_x_at): 20.03 RFU
